Our source for the IC50 values is BindingDB's records for doi:10.1021/jm981008a (1998).

By IC50 is commonly meant the concentration at which inhibition is half-maximal. Read a high IC50 as a need for much substance.

In test [1] the target is Sodium-dependent noradrenaline transporter (Homo sapiens, UniProt P23975). The experiment in a line: The compound was tested in vitro for binding affinity for the norepinephrine transporter (NET) using competitive binding assay.
The target in test [2] is Sodium-dependent serotonin transporter (Homo sapiens, UniProt P31645). Kind of test: The compound was tested in vitro for binding affinity for the serotonin transporter (5-HTT) using competitive binding assay.
Chain of Sodium-dependent serotonin transporter (P31645 whole entry): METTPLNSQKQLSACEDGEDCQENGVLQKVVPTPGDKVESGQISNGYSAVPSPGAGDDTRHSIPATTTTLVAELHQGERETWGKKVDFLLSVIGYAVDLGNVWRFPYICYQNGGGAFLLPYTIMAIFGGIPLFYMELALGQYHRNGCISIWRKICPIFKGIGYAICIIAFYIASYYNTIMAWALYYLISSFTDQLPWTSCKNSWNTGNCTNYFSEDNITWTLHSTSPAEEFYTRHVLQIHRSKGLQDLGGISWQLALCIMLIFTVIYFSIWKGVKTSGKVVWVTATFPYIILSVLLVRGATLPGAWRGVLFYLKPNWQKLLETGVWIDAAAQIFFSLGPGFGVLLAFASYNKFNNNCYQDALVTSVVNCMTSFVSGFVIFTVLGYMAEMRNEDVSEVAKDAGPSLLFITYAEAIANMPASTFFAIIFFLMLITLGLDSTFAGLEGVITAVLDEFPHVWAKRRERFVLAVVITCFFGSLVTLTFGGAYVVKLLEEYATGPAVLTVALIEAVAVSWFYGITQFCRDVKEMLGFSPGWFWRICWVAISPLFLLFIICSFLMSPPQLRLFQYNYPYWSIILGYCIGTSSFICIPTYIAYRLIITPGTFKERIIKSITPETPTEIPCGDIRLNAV
For test [3], the target named is T1, Sodium-dependent dopamine transporter (Homo sapiens, UniProt Q01959). Kind of test: The compound was tested in vitro for high binding affinity for the Dopamine transporter (DAT) using competitive binding assay.
T1 sequence (Q01959 whole entry): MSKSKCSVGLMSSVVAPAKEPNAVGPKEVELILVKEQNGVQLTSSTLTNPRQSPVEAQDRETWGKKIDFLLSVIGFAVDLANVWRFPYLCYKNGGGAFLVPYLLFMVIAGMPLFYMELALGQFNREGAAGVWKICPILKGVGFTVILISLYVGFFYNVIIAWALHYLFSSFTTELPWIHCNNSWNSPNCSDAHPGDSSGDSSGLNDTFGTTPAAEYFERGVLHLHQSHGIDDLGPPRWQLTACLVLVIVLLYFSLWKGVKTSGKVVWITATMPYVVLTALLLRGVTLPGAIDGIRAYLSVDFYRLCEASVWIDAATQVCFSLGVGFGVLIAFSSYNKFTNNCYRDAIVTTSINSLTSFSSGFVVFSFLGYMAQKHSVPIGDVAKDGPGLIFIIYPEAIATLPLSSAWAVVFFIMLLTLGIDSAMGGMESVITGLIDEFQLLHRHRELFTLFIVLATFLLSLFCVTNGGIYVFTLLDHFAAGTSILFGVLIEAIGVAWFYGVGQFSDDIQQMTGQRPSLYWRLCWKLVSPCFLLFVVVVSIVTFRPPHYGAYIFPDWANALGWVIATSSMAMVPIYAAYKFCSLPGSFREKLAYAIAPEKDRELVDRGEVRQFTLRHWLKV
Test [4] deals with T1, Sodium-dependent dopamine transporter. Kind of test: The compound was tested in vitro for low binding affinity for the Dopamine transporter (DAT) using competitive binding assay.

Chain of Sodium-dependent noradrenaline transporter (P23975 whole entry): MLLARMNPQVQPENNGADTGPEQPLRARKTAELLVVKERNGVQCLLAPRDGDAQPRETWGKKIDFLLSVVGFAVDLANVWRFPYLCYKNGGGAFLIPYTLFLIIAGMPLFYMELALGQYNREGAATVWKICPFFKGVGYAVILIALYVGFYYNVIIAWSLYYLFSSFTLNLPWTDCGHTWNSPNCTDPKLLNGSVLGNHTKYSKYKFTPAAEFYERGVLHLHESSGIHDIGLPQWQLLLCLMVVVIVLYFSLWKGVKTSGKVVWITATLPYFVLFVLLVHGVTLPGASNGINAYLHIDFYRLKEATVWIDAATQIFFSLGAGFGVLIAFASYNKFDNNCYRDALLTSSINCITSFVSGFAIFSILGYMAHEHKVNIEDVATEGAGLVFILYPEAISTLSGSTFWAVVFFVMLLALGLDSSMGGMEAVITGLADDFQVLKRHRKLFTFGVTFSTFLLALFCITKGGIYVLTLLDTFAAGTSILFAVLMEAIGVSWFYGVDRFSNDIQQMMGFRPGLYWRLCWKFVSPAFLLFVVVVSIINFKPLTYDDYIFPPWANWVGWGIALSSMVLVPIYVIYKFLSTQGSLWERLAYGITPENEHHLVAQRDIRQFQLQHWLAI

In the case of `CN1C2CCC1[C@@H](COC(=O)CC[S+]1CC[S+](C)[Re]1([Br])([CH]=O)([CH]=O)[CH]=O)[C@@H](c1ccc(F)cc1)C2` (some centres undefined) [Rhenium complex of 3-(2-Bromo-2,2,2-triformyl-3-methyl-1lambda*4*,2lambda*6*,3lambda*4*-[1,2,3]dithiolan-1-yl)-propionic acid 3-(4-fluoro-phenyl)-8-methyl-8-aza-bicyclo[3.2.1]oct-2-ylmethyl ester], the IC50 was 7.3 nM in test [1], 72 nM in test [2], 0.146 nM in test [3] and 20 nM in test [4].
